According to a compilation of properties of binary mixtures (doi:10.1016/j.jct.2014.10.022):

Test: xn = mol fraction of the nth substance listed
Conditions: 100 kPa

CCCC[n+]1ccc(C)cc1.O=S(=O)([N-]S(=O)(=O)C(F)(F)F)C(F)(F)F + CCOS(=O)(=O)[O-].CC[n+]1ccn(C)c1
viscosity [mPa·s]
Conditions	x2 = 0.0475	x2 = 0.1177	x2 = 0.226	x2 = 0.3341	x2 = 0.4479	x2 = 0.558	x2 = 0.6663	x2 = 0.7776	x2 = 0.886	x2 = 0.9487
293.15 K	78.7	–	100.8	–	132.9	–	150.8	149.6	141.6	133.5
303.15 K	49.3	54	62.2	70.8	79.8	–	90.1	–	85.5	81.1
313.15 K	33	36	41.1	–	51.7	55.9	–	57.9	55.7	–
323.15 K	23.3	25.3	28.6	31.9	35.5	38.2	–	–	38.3	36.8
333.15 K	17.2	–	20.9	–	25.5	–	–	28.4	27.7	26.7
343.15 K	–	–	15.6	17.1	18.9	20.2	–	–	20.6	–
353.15 K	–	11	–	13.3	14.5	15.5	16.1	–	15.9	15.4

CC[n+]1ccn(C)c1.O=S(=O)([O-])C(F)(F)C(F)F + CCCC[n+]1ccc(C)cc1.O=S(=O)([N-]S(=O)(=O)C(F)(F)F)C(F)(F)F
viscosity [mPa·s]
Conditions	x2 = 0.0504	x2 = 0.112	x2 = 0.2211	x2 = 0.3324	x2 = 0.4432	x2 = 0.5529	x2 = 0.6631	x2 = 0.774	x2 = 0.8828	x2 = 0.9517
293.15 K	115.9	113.9	–	–	–	95.1	89.1	–	78.9	75.3
303.15 K	72	70.8	69.5	–	62.7	59.4	55.8	52.9	49.7	–
313.15 K	–	–	45.7	43.8	–	39.5	–	35.4	33.2	31.7
323.15 K	33.3	32.8	31.7	30.6	–	27.6	26.5	25	23.4	22.4
333.15 K	24.3	24	23.2	22.4	–	–	–	18.4	17.3	16.6
343.15 K	–	18	17.3	16.8	16.2	15.2	14.7	13.9	13	12.5
353.15 K	14.2	14	13.5	13.1	12.6	11.9	11.6	–	–	9.9
